Source: patent US20230111310A1, “CARBOXYLIC ACID DERIVATIVE-SUBSTITUTED IMINO ARYL COMPOUND, PREPARATION METHOD THEREFOR, HERBICIDAL COMPOSITION AND USE THEREOF” (Qingdao Kingagroot Chemical Compound Co., Ltd., priority 2020, published 2023)

What was measured:
Assay in all cases: Weeding effect in post-emergence stage
Assay type in all cases: in vivo
[1] = system: Abutilon theophrasti; details: for Weeding effect in post-emergence stage, Abutilon theophrasti: level of fresh weight growth control rate; for Weeding effect in post-emergence stage, Abutilon theophrasti (level): fresh weight control rate level
From the text: (§1) The activity level criteria for plant damage (i.e., growth control rate) are as follows:
(§2) Monocotyledonous and dicotyledonous weed seeds (Descurainia sophia, Capsella bursa-pastoris, Abutilon theophrasti, Galium aparine, Stellaria media, Lithospermum arvense, rorippa indica, Alopecurus aequalis, Alopecurus japonicus, Eleusine indica, Beckmannia syzigachne, Sclerochloa dura, Conyza Canadensis, Phleum paniculatum, Veronica didyma Tenore, Bromus japonicus, Aegilops tauschii, Phalaris arundinacea, Amaranthus retroflexus, Chenopodiaceae, Commelina communis, Sonchus arvensis, Convolvulus arvensis, Cirsium setosum, Bidens tripartita L., Solanum nigrum, Acalypha australis, Digitaria sanguinalis, Echinochloa crusgalli, Setaria viridis, Setaria glauca, Leptochloa chinensis, Monochoria vaginalis, Sagittaria trifolia, Scirpus juncoides, Cyperus rotundus, Cyperus iria, Cyperus difformis, Fimbristylis, Portulaca oleracea, Xanthium sibiricum, Pharbitis nil, etc.) and major crop seeds (wheat, corn, rice, soybean, cotton, oilseed rape, millet, sorghum, potato, sesame, ricinus, etc.) were placed in plastic pots filled with soil, then covered with 0.5-2 cm of soil, allowed to grow in a good greenhouse environment. After 2 weeks of sowing, the test plants were treated in the 2-3 leaf stage. The tested compounds of the present invention were respectively dissolved in acetone, then added with Tween 80 and 1.5 liter/ha of emulsifiable concentrate of methyl oleate as synergist, diluted with a certain amount of water to obtain a solution with a certain concentration, and sprayed with a spray tower onto the plants. After the application, the plants were cultured for 3 weeks in the greenhouse, and then the experimental results of the weeding were counted. […]

[2] = system: Alopecurus japonicus; details: for Weeding effect in post-emergence stage, Alopecurus japonicus: level of fresh weight growth control rate; for Weeding effect in post-emergence stage, Alopecurus japonicus (level): fresh weight control rate level
From the text: as §1, §2

[3] = system: Digitaria sanguinalis; details: for Weeding effect in post-emergence stage, Digitaria sanguinalis: level of fresh weight growth control rate; for Weeding effect in post-emergence stage, Digitaria sanguinalis (level): fresh weight control rate level
From the text: as §1, §2

[4] = system: Eleusine indica; details: for Weeding effect in post-emergence stage, Eleusine indica: level of fresh weight growth control rate; for Weeding effect in post-emergence stage, Eleusine indica (level): fresh weight control rate level
From the text: as §1, §2

[5] = system: Setaria viridis; details: for Weeding effect in post-emergence stage, Setaria viridis: level of fresh weight growth control rate; for Weeding effect in post-emergence stage, Setaria viridis (level): fresh weight control rate level
From the text: as §1, §2

[6] = system: Echinochloa crusgalli; details: for Weeding effect in post-emergence stage, Echinochloa crusgalli: level of fresh weight growth control rate; for Weeding effect in post-emergence stage, Echinochloa crusgalli (level): fresh weight control rate level
Procedure, shortened: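 Doses of 500, 250, 125, 60, 30, 15 and 7.5 g/ha, with methyl oleate synergist (1.5 liter/ha) and Tween 80 from acetone solution, applied by spray tower post-emergence (2–3 leaf stage). Weed control scored after 3 further greenhouse weeks, averaged over triplicates.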

Row | Structure (SMILES) | Weeding effect in post-emergence stage, Abutilon theophrasti ([1]; Dose 15 g/ha) | Weeding effect in post-emergence stage, Alopecurus japonicus ([2]; Dose 15 g/ha) | Weeding effect in post-emergence stage, Digitaria sanguinalis ([3]; Dose 15 g/ha) | Weeding effect in post-emergence stage, Eleusine indica ([4]; Dose 15 g/ha) | Weeding effect in post-emergence stage, Setaria viridis ([5]; Dose 15 g/ha) | Weeding effect in post-emergence stage, Echinochloa crusgalli ([6]; Dose 15 g/ha) | Weeding effect in post-emergence stage, Abutilon theophrasti (level) ([1]; Dose 15 g/ha) | Weeding effect in post-emergence stage, Alopecurus japonicus (level) ([2]; Dose 15 g/ha) | Weeding effect in post-emergence stage, Digitaria sanguinalis (level) ([3]; Dose 15 g/ha) | Weeding effect in post-emergence stage, Eleusine indica (level) ([4]; Dose 15 g/ha) | Weeding effect in post-emergence stage, Setaria viridis (level) ([5]; Dose 15 g/ha) | Weeding effect in post-emergence stage, Echinochloa crusgalli (level) ([6]; Dose 15 g/ha) | other results
1 | CC(O/N=C/c1cc(-n2c(=O)cc(C(F)(F)F)n(C)c2=O)c(F)cc1Cl)C(=O)OCC#N (racemic) [Compound 226] | 5 (Level 5: growth control rate is above 85%) | 5 (Level 5: growth control rate is above 85%) | 5 (Level 5: growth control rate is above 85%) | 5 (Level 5: growth control rate is above 85%) | 5 (Level 5: growth control rate is above 85%) | 5 (Level 5: growth control rate is above 85%) | – | – | – | – | – | – | –
2 | C[C@@H](O/N=C/c1cc(-n2c(=O)cc(C(F)(F)F)n(C)c2=O)c(F)cc1Cl)C(N)=O [499(R)] | – | – | – | – | – | – | 5 (Level 5: growth control rate is above 85%) | 5 (Level 5: growth control rate is above 85%) | 5 (Level 5: growth control rate is above 85%) | 5 (Level 5: growth control rate is above 85%) | 5 (Level 5: growth control rate is above 85%) | 5 (Level 5: growth control rate is above 85%) | –
3 | CC(O/N=C/c1cc(-n2c(=O)cc(C(F)(F)F)n(C)c2=O)c(F)cc1Cl)C(=O)OCc1cccs1 (stereo not drawn) [Compound 268] | – | – | – | – | – | – | – | – | – | – | – | – | Weeding effect in post-emergence stage, Abutilon theophrasti ([1]; Dose 30 g/ha): 5 (Level 5: growth control rate is above 85%); Weeding effect in post-emergence stage, Alopecurus japonicus ([2]; Dose 30 g/ha): 5 (Level 5: growth control rate is above 85%); Weeding effect in post-emergence stage, Digitaria sanguinalis ([3]; Dose 30 g/ha): 5 (Level 5: growth control rate is above 85%); Weeding effect in post-emergence stage, Eleusine indica ([4]; Dose 30 g/ha): 5 (Level 5: growth control rate is above 85%); Weeding effect in post-emergence stage, Setaria viridis ([5]; Dose 30 g/ha): 5 (Level 5: growth control rate is above 85%); Weeding effect in post-emergence stage, Echinochloa crusgalli ([6]; Dose 30 g/ha): 5 (Level 5: growth control rate is above 85%)
4 | COC(=O)[C@H](CF)O/N=C/c1cc(-n2c(=O)cc(C(F)(F)F)n(C)c2=O)c(F)cc1Cl [463(R)] | – | – | – | – | – | – | 5 (Level 5: growth control rate is above 85%) | 5 (Level 5: growth control rate is above 85%) | 5 (Level 5: growth control rate is above 85%) | 5 (Level 5: growth control rate is above 85%) | 5 (Level 5: growth control rate is above 85%) | 5 (Level 5: growth control rate is above 85%) | –
5 | CC(O/N=C/c1cc(-n2c(=O)n(C)c(=S)n(C)c2=O)c(F)cc1Cl)C(=O)OCCCF (racemic) [Compound 11] | 5 (Level 5: growth control rate is above 85%) | 5 (Level 5: growth control rate is above 85%) | 5 (Level 5: growth control rate is above 85%) | 5 (Level 5: growth control rate is above 85%) | 5 (Level 5: growth control rate is above 85%) | 5 (Level 5: growth control rate is above 85%) | – | – | – | – | – | – | –
6 | COC(=O)C(O/N=C/c1cc(-n2c(=O)cc(C(F)(F)F)n(C)c2=O)c(F)cc1Cl)C1CC1 (racemic) [Compound 456] | – | – | – | – | – | – | – | – | – | – | – | – | Weeding effect in post-emergence stage, Abutilon theophrasti (level) ([1]; Dose 30 g/ha): 5 (Level 5: growth control rate is above 85%); Weeding effect in post-emergence stage, Alopecurus japonicus (level) ([2]; Dose 30 g/ha): 5 (Level 5: growth control rate is above 85%); Weeding effect in post-emergence stage, Digitaria sanguinalis (level) ([3]; Dose 30 g/ha): 5 (Level 5: growth control rate is above 85%); Weeding effect in post-emergence stage, Eleusine indica (level) ([4]; Dose 30 g/ha): 5 (Level 5: growth control rate is above 85%); Weeding effect in post-emergence stage, Setaria viridis (level) ([5]; Dose 30 g/ha): 5 (Level 5: growth control rate is above 85%); Weeding effect in post-emergence stage, Echinochloa crusgalli (level) ([6]; Dose 30 g/ha): 5 (Level 5: growth control rate is above 85%)
